{"source": "patent US5510371A", "about": "“Inhibitors of farnesyl-protein transferase” (Merck & Co., Inc., priority 1994, dated 1996)", "biological_target": "T1, human recombinant farnesyl-protein transferase (Homo sapiens, UniProt P49354+P49356)", "T1 construct": "made in house; host or cells: Escherichia coli", "T1 sequence (P49356 whole entry, one chain of several)": "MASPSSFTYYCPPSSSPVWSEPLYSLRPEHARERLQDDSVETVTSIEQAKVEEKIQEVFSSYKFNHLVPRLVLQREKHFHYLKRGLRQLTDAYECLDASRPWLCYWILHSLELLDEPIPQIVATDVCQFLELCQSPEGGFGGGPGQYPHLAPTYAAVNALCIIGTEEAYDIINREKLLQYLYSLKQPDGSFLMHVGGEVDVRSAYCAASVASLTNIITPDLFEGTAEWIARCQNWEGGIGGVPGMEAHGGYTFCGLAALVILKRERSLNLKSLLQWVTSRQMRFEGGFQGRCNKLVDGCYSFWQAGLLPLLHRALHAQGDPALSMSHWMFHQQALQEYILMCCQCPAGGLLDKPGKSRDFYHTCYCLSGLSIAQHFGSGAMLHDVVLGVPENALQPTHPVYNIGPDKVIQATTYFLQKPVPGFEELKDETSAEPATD", "assay": "In vitro inhibition of ras farnesyl transferase", "format": "biochemical", "details": "50 nM 3H-FPP, 0.1 μM ras-CVIM, 2 μg human recombinant FPTase, pH 7.5, 30 minutes at 31° C.; read-out: LC50 (nM) (IC50: concentration of the test compound which gives 50% inhibition of FPTase)", "protocol": "In vitro inhibition of ras farnesyl transferase\nHuman FPTase was expressed in Escherichia coli and then the recombinant protein was purified as described by Omer, et al., Biochemistry 32, 5167 (1993). The assay was performed in a volume of 100 μl containing 100 mM N-(2-hydroxy ethyl) piperazine-N'-(2-ethane sulfonic acid) (HEPES), pH 7.5, 5 mM MgCl2, 5 mM dithiothreitol (DTT), 10 μM ZnCl2, 0.1% (w/v) polyethylene glycol 20,000, 50 nM 3H!-Farnesyl Pyrophosphate ( 3H!-FPP, […], NEN-DuPont), 0.1 μM ras-CVIM and 2 μg of human recombinant farnesyl-protein transferase. The assay was run in the presence of the compound(s) for 30 minutes at 31° C. and then quenched by placing the tubes in an ice bath for 5 minutes. Trichloracetic acid (TCA, 0.1 ml of 30% (v/v) in ethanol followed by 50 μl of 0.25% (w/v) Bovine Serum Albumin in water was added to the tubes, vortexed for 5 minutes then placed in a 37° C. water bath for 30 minutes to facilitate the hydrolysis of the unused farnesyl pyrophosphate. The precipitate was collected on a Packard double thickness filtermat, using a Tomtec Mach II Cell Harvester and washed with 8 ml of 100% Ethanol. The filtermats were dried in a microwave oven and counted in a LKB Betaplate counter. The compounds were dissolved in dimethyl sulfoxide and were diluted 20-fold into the assay.\nInhibition of RAS farnesylation by compounds of this invention* […]", "data": [{"smiles": "CCC(CC(C)C(=O)O)C(=O)CCC1=CC(C)CC(C)=CC(C)C(O)C(C)CCC(CCCCC=CC(C)CCC(C)OC(=O)CC(CC(=O)O)C(=O)O)OC(=O)CC(C(=O)O)CC(=O)OC1", "note": "(stereo not shown) [Compound 1, 1,2,3-propanetricarboxylic acid 1-10-4-carboxy 19-(6-carboxy-4-ethyl-3-oxoheptyl)-12-hydroxy-11,13,15,17-tetramethyl-2,6-dioxo-1,7-dioxacycloeiocosa-14,18-dien-8-yl!-1,4-dimethyl-5-decenyl! ester]", "values": [{"measurement": "IC50", "result": 230, "unit": "nM"}]}]}
